From US20240174659A1, “COMPOUNDS AND METHODS FOR YAP/TEAD MODULATION AND INDICATIONS THEREFOR” (Opna Bio SA, priority 2021, published 2024)

tested on: TEAD-dependent transcription; assay: Inhibitor activity against TEAD-dependent transcription in a cell-based reporter assay (MSTO-211H+12XGTIIC luciferase); details: Homo sapiens; MSTO-211H+12XGTIIC cells, 24 hours incubation, luciferase luminescence normalized to cell viability fluorescence, geometric mean; read-out: MSTO-211H GMean IC50 (uM) Cell Assay Reporter Cell Variant: TEAD
From the text: Determine Inhibitor Activity Against TEAD-Dependent Transcription in a Cell-Based Reporter Assay
The human mesothelioma cell line MSTO-211H was stably transfected with a pGL4.21 plasmid containing a synthetic promoter with 12 copies of the GTIIC TEAD response element that drives the expression of a luciferase reporter gene^1 using Lipofectamine transfection reagent (Thermo Fisher). Transfected cells were selected using puromycin and single cell clones expressing this construct (referred to as MSTO-211H+12XGTIIC) were generated by limiting dilution. MSTO-211H cells was characterized by genetic alterations in key components of the Hippo pathway^2, resulting in up-regulation of YAP/TEAD-mediated transcription. […] To evaluate TEAD inhibitors, the MSTO-211H+12XGTIIC cell line was seeded in a 96-well plate in 50 μL of culture media at 1×10^4 cells per well and incubated at 37° C. overnight. Serial dilutions of compounds (in total volume of 50 μL of culture media) were added to the cells and incubated at 37° C. for 24 hours. Each plate included cells treated with DMSO as high controls and cells treated with 20 μM of the reference compound K-975 (a known TEAD inhibitor)^3 as low controls. Cell viability was assayed by the addition of 25 μL of CellTiter-Fluor reagent (Promega) followed by a 30-minute incubation at 37° C. and quantification of the fluorescence signal (Ex400/Em505). Subsequently, luciferase expression was assayed by the addition of 25 μL of ONE-Glo reagent (Promega) followed by a 10-minute incubation at room temperature and quantification of the luminescence signal. The luminescence signal was normalized to the fluorescence signal to correct for any loss in cell viability over the 24-hour compound incubation period. The percentage of inhibition of normalized luminescence signal, indicative of compound-mediated inhibition of TEAD-dependent transcription, at individual compound concentrations relative to high and low controls was calculated. The data were analyzed by using nonlinear regression to generate IC50 values for individual compounds.

`C=CC(=O)N1CCc2ccc(OCc3ccc(F)cc3)cc2C1` [P-0001, 1-(7-((4-fluorobenzyl)oxy)-3,4-dihydroisoquinolin-2(1H)-yl)prop-2-en-1-one] and `C=CC(=O)N1CCc2ccc(Oc3ccc(F)cc3)cc2C1` [P-0013, 1-(7-(4-fluorophenoxy)-3,4-dihydroisoquinolin-2(1H)-yl)prop-2-en-1-one] fall in the same range of IC50: 0.001 to 0.5 µM for the first, 0.001 to 0.5 µM for the second.

`C=CC(=O)N1CCc2ccc(OCc3ccccc3)cc2C1` [P-0002, 1-(7-(benzyloxy)-3,4-dihydroisoquinolin-2(1H)-yl)prop-2-en-1-one] and `C=CC(=O)N1CCc2ccc(Oc3ccccc3)cc2C1` [P-0007, 1-(7-phenoxy-3,4-dihydroisoquinolin-2(1H)-yl)prop-2-en-1-one] fall in the same range of IC50: 0.001 to 0.5 µM for the first, 0.001 to 0.5 µM for the second.

First: C=CC(=O)N1CCc2cccc(Nc3cccc(F)c3)c2C1 [P-0003, 1-(8-((3-fluorophenyl)amino)-3,4-dihydroisoquinolin-2(1H)-yl)prop-2-en-1-one]
Second: C=CC(=O)N1CCc2ccc(Nc3cccc(F)c3)cc2C1 [P-0004, 1-(7-((3-fluorophenyl)amino)-3,4-dihydroisoquinolin-2(1H)-yl)prop-2-en-1-one]
The IC50 of the first is higher: 0.5 to 20 µM for the first, 0.001 to 0.5 µM for the second.

`C=CC(=O)N1CCc2cccc(Oc3cccc(F)c3)c2C1` [P-0005, 1-(8-(3-fluorophenoxy)-3,4-dihydroisoquinolin-2(1H)-yl)prop-2-en-1-one] and `C=CC(=O)N1CCc2ccc(Oc3cccc(F)c3)cc2C1` [P-0006, 1-(7-(3-fluorophenoxy)-3,4-dihydroisoquinolin-2(1H)-yl)prop-2-en-1-one] fall in the same range of IC50: 0.001 to 0.5 µM for the first, 0.001 to 0.5 µM for the second.

`C=CC(=O)N1CCc2ccc(Oc3ccc(F)cc3F)cc2C1` [P-0008, 1-(7-(2,4-difluorophenoxy)-3,4-dihydroisoquinolin-2(1H)-yl)prop-2-en-1-one] and `C=CC(=O)N1CCc2cc(F)c(Oc3ccc(F)cc3)cc2C1` [P-0032, 1-(6-fluoro-7-(4-fluorophenoxy)-3,4-dihydroisoquinolin-2(1H)-yl)prop-2-en-1-one] fall in the same range of IC50: 0.001 to 0.5 µM for the first, 0.001 to 0.5 µM for the second.

Compared with `C=CC(=O)N1CCc2ccc(OC3CCOCC3)cc2C1` [P-0009, 1-(7-((tetrahydro-2H-pyran-4-yl)oxy)-3,4-dihydroisoquinolin-2(1H)-yl)prop-2-en-1-one], `C=CC(=O)N1CCc2ccc(OC3CCN(S(C)(=O)=O)CC3)cc2C1` [P-0028, 1-(7-((1-(methylsulfonyl)piperidin-4-yl)oxy)-3,4-dihydroisoquinolin-2(1H)-yl)prop-2-en-1-one] is higher in IC50: 0.001 to 0.5 µM for the first, 0.5 to 20 µM for the second. The first is the more potent here.

`C=CC(=O)N1CCc2ccc(Nc3ccccc3)cc2C1` [P-0010, 1-(7-(phenylamino)-3,4-dihydroisoquinolin-2(1H)-yl)prop-2-en-1-one] and `C=CC(=O)N1CCc2ccc(Nc3ccccc3F)cc2C1` [P-0022, 1-(7-((2-fluorophenyl)amino)-3,4-dihydroisoquinolin-2(1H)-yl)prop-2-en-1-one] fall in the same range of IC50: 0.001 to 0.5 µM for the first, 0.001 to 0.5 µM for the second.

`C=CC(=O)N1CCc2ccc(Nc3ccnc(C(F)(F)F)c3)cc2C1` [P-0011, 1-(7-((2-(trifluoromethyl)pyridin-4-yl)amino)-3,4-dihydroisoquinolin-2(1H)-yl)prop-2-en-1-one] and `C=CC(=O)N1CCc2ccc(Nc3ccc(C(F)(F)F)nc3)cc2C1` [P-0012, 1-(7-((6-(trifluoromethyl)pyridin-3-yl)amino)-3,4-dihydroisoquinolin-2(1H)-yl)prop-2-en-1-one] fall in the same range of IC50: 0.5 to 20 µM for the first, 0.5 to 20 µM for the second.

`C=CC(=O)N1CCc2ccc(Oc3cccc(Cl)c3)cc2C1` [P-0014, 1-(7-(3-chlorophenoxy)-3,4-dihydroisoquinolin-2(1H)-yl)prop-2-en-1-one] and `C=CC(=O)N1CCc2ccc(Oc3ccc(Cl)cc3)cc2C1` [P-0015, 1-(7-(4-chlorophenoxy)-3,4-dihydroisoquinolin-2(1H)-yl)prop-2-en-1-one] fall in the same range of IC50: 0.001 to 0.5 µM for the first, 0.001 to 0.5 µM for the second.

`C=CC(=O)N1CCc2ccc(Oc3ccc(F)c(F)c3)cc2C1` [P-0016, 1-(7-(3,4-difluorophenoxy)-3,4-dihydroisoquinolin-2(1H)-yl)prop-2-en-1-one] and `C=CC(=O)N1CCc2ccc(Oc3cccc(C(F)(F)F)c3)cc2C1` [P-0017, 1-(7-(3-(trifluoromethyl)phenoxy)-3,4-dihydroisoquinolin-2(1H)-yl)prop-2-en-1-one] fall in the same range of IC50: 0.001 to 0.5 µM for the first, 0.001 to 0.5 µM for the second.

`C=CC(=O)N1CCc2ccc(Oc3ccc(C(F)(F)F)cc3)cc2C1` [P-0018, 1-(7-(4-(trifluoromethyl)phenoxy)-3,4-dihydroisoquinolin-2(1H)-yl)prop-2-en-1-one] and `C=CC(=O)N1CCc2ccc(Oc3ccc(C(F)(F)F)nc3)cc2C1` [P-0027, 1-(7-((6-(trifluoromethyl)pyridin-3-yl)oxy)-3,4-dihydroisoquinolin-2(1H)-yl)prop-2-en-1-one] fall in the same range of IC50: 0.001 to 0.5 µM for the first, 0.001 to 0.5 µM for the second.

`C=CC(=O)N1CCc2ccc(Oc3cccnc3)cc2C1` [P-019, 1-(7-(pyridin-3-yloxy)-3,4-dihydroisoquinolin-2(1H)-yl)prop-2-en-1-one] and `C=CC(=O)N1CCc2ccc(Oc3ccc(C)nc3)cc2C1` [P-0036, 1-(7-((6-methylpyridin-3-yl)oxy)-3,4-dihydroisoquinolin-2(1H)-yl)prop-2-en-1-one] fall in the same range of IC50: 0.001 to 0.5 µM for the first, 0.001 to 0.5 µM for the second.

`C=CC(=O)N1CCc2ccc(OC3CC(F)(F)C3)cc2C1` [P-0020, 1-(7-(3,3-difluorocyclobutoxy)-3,4-dihydroisoquinolin-2(1H)-yl)prop-2-en-1-one] and `C=CC(=O)N1CCc2ccc(NC3CCC(F)(F)CC3)cc2C1` [P-0029, 1-(7-((4,4-difluorocyclohexyl)amino)-3,4-dihydroisoquinolin-2(1H)-yl)prop-2-en-1-one] fall in the same range of IC50: 0.001 to 0.5 µM for the first, 0.001 to 0.5 µM for the second.

`C=CC(=O)N1CCc2ccc(OC34CC5CC(CC(C5)C3)C4)cc2C1` [P-0021, 1-(7-(((3R,5R)-adamantan-1-yl)oxy)-3,4-dihydroisoquinolin-2(1H)-yl)prop-2-en-1-one] and `C=CC(=O)N1CCc2ccc(N(C)c3ccccc3)cc2C1` [P-0026, 1-(7-(methyl(phenyl)amino)-3,4-dihydroisoquinolin-2(1H)-yl)prop-2-en-1-one] fall in the same range of IC50: 0.001 to 0.5 µM for the first, 0.001 to 0.5 µM for the second.

`C=CC(=O)N1CCc2ccc(Nc3ccc(F)cc3)cc2C1` [P-0023, 1-(7-((4-fluorophenyl)amino)-3,4-dihydroisoquinolin-2(1H)-yl)prop-2-en-1-one] and `C=CC(=O)N1CCc2ccc(Nc3cccc(Cl)c3)cc2C1` [P-0024, 1-(7-((3-chlorophenyl)amino)-3,4-dihydroisoquinolin-2(1H)-yl)prop-2-en-1-one] fall in the same range of IC50: 0.001 to 0.5 µM for the first, 0.001 to 0.5 µM for the second.

`C=CC(=O)N1CCc2ccc(Nc3cccc(C(F)(F)F)c3)cc2C1` [P-0025, 1-(7-((3-(trifluoromethyl)phenyl)amino) -3,4-dihydroisoquinolin-2(1H)-yl)prop-2-en-1-one] and `C=CC(=O)N1CCc2ccc(Cc3cccc(F)c3)cc2C1` [P-0034, 1-(7-(3-fluorobenzyl)-3,4-dihydroisoquinolin-2(1H)-yl)prop-2-en-1-one] fall in the same range of IC50: 0.001 to 0.5 µM for the first, 0.001 to 0.5 µM for the second.

`C=CC(=O)N1CCc2cc(F)c(Oc3ccccc3)cc2C1` [P-0030, 1-(6-fluoro-7-phenoxy-3,4-dihydroisoquinolin-2(1H)-yl)prop-2-en-1-one] and `C=CC(=O)N1CCc2cc(C)c(Oc3ccccc3)cc2C1` [P-0041, 1-(6-methyl-7-phenoxy-3,4-dihydroisoquinolin-2(1H)-yl)prop-2-en-1-one] fall in the same range of IC50: 0.001 to 0.5 µM for the first, 0.001 to 0.5 µM for the second.

`C=CC(=O)N1CCc2cc(F)c(Oc3cccc(F)c3)cc2C1` [P-0031, 1-(6-fluoro-7-(3-fluorophenoxy)-3,4-dihydroisoquinolin-2(1H)-yl)prop-2-en-1-one] and `C=C(F)C(=O)N1CCc2ccc(Oc3cccc(F)c3)cc2C1` [P-0037, 2-fluoro-1-(7-(3-fluorophenoxy)-3,4-dihydroisoquinolin-2(1H)-yl)prop-2-en-1-one] fall in the same range of IC50: 0.001 to 0.5 µM for the first, 0.001 to 0.5 µM for the second.

`C=CC(=O)N1CCc2ccc(Cc3ccccc3)cc2C1` [P-0033, 1-(7-benzyl-3,4-dihydroisoquinolin-2(1H)-yl)prop-2-en-1-one] and `C=CC(=O)N1CCc2ccc(Cc3ccc(F)cc3)cc2C1` [P-0035, 1-(7-(4-fluorobenzyl)-3,4-dihydroisoquinolin-2(1H)-yl)prop-2-en-1-one] fall in the same range of IC50: 0.001 to 0.5 µM for the first, 0.001 to 0.5 µM for the second.

First: C=C(CO)C(=O)N1CCc2ccc(Oc3cccc(F)c3)cc2C1 [P-0038, 1-(7-(3-fluorophenoxy)-3,4-dihydroisoquinolin-2(1H)-yl)-2-(hydroxymethyl)prop-2-en-1-one]
Second: O=C(/C=C/CN1CCOCC1)N1CCc2ccc(Oc3cccc(F)c3)cc2C1 [P-0039, (E)-1-(7-(3-fluorophenoxy)-3,4-dihydroisoquinolin-2(1H)-yl)-4-morpholinobut-2-en-1-one]
The IC50 of the first is lower: 0.001 to 0.5 µM for the first, > 20 µM for the second.

In the case of `CN1CCN(C/C=C/C(=O)N2CCc3ccc(Oc4cccc(F)c4)cc3C2)CC1` [P-0040, (E)-1-(7-(3-fluorophenoxy)-3,4-dihydroisoquinolin-2(1H)-yl)-4-(4-methylpiperazin-1-yl)but-2-en-1-one], the IC50 is reported as > 20 µM.
